Assay [1] relates to Panc-1 cells. The assay can be described thus: MTT assay, Panc-1 cells. It counts as cell-based, human. Conditions: 48 hours, read-out: IC50 with respect to the Panc-1 cells. How it is done:
JeKo-1 cells of a cell line derived from a human mantle cell lymphoma were seeded in a 96-well plate at 1×10^4 cells/well/100 μL. In addition, Panc-1 cells of a cell line derived from a human pancreatic cancer were seeded in a 96-well plate at 3×10^3 cells/well/100 μL.
Subsequently, 3EZ,20Ac-ingenol at final concentrations of 0 (control), 0.1, 0.5, 1, 5, and 10 μM was added the wells of the respective cells, and culturing was performed for 48 hours. Subsequently, cell proliferation was examined by MTT assay using a Cell Proliferation Kit I (Roche Applied Science).
First, JeKo-1 cells were seeded in a 96-well plate at 1×10^4 cells/well/100 μL. Subsequently, irinotecan at a final concentration of 0 (control), 0.5, 1, 5, 10, 20, and 30 μM was added to the wells of the cells and culturing was performed for 48 hours. In addition, Panc-1 cells were seeded in a 96-well plate at 3×10^3 cells/well/100 μL. Subsequently, irinotecan at a final concentration of 0 (control), 0.5, 1, 5, 10, 20, 30, and 50 μM was added to the wells of the cells and culturing was performed for 48 hours. Subsequently, cell proliferation was examined by MTT assay using a Cell Proliferation Kit I (Roche Applied Science).
For orientation: Tetrazolium dyes change colour on reduction, which living cells bring about.

The test system of assay [2] is Panc-1 cells. The assay can be described thus: Cell Death Detection ELISA, Panc-1. It counts as cell-based, human. To be noted: 3 μM. How it is done:
The induction of apoptosis by 3EZ,20Ac-ingenol treatment was examined by detecting histone-binding DNA fragmentation in the cytoplasm using a Cell Death Detection […] kit (Roche Applied Science).
Specifically, Panc-1 cells were inserted into tubes at 5×10^3 cells/well/100 μL, and incubated for 6, 12, 24, 48, and 72 hours in the presence of 3EZ,20Ac-ingenol at a final concentration of 3 μM. Subsequently, the respective cells were lysed in a lysis buffer. Subsequently, the supernatant of cell debris of the respective cells was collected and transferred to an ELISA plate, and an absorbance at a wavelength of 405 nm was measured to measure the induction of apoptosis.

The test system of assay [3] is phosphorylated H2AX (γH2AX). The assay can be described thus: Western blotting, phosphorylated H2AX, JeKo-1 cells. It counts as cell-based, human. To be noted: 0.5 μM, 12 hours after treatment. As for the experimental part:
(§1) Specifically, JeKo-1 cells were cultured for 0 (control), 12, 24 and 48 hours in the presence of 0.5 μM of 3EZ,20Ac-ingenol. In addition, Panc-1 cells were cultured for 0 (control), 12, 24, and 48 hours in the presence of 3 μM of 3EZ,20Ac-ingenol.
(§2) Subsequently, phosphorylation of H2AX in the respective cells was detected using an anti-phosphorylated-H2AX antibody (Millipore). In addition, p21 protein was detected using an anti-p21 antibody (Cell Signaling Technology). Furthermore, as a loading control, actin protein was detected using an anti-actin antibody (Sigma).
(In western blotting, separated proteins are transferred to a membrane and probed.)

The test system of assay [4] is phosphorylated H2AX (γH2AX). The assay can be described thus: Western blotting, phosphorylated H2AX, Panc-1 cells. It counts as cell-based, human. Conditions: 3 μM, 12, 24, 48 hours. As for the experimental part: as §1, §2
Another assay has as its system p53 protein. The assay can be described thus: Western blotting, p53 protein, JeKo-1 cells. It counts as cell-based, human. To be noted: 0.5 μM, 12 hours until 48 hours after treatment. As for the experimental part: (§3) Specifically, JeKo-1 cells were cultured for 0 (control), 12, 24, and 48 hours in the presence of 0.5 μM of 3EZ,20Ac-ingenol. In addition, Panc-1 cells were cultured for 0 (control), 12, 24, and 48 hours in the presence of 3 μM of 3EZ,20Ac-ingenol.
(§4) Subsequently, ATR protein, p53 protein, and phosphorylated p53 (hereinafter also referred to as “p-p53”) protein in the respective cells were respectively detected using an anti-ATR antibody (Cell Signaling Technology), an anti-p53 antibody (Santa Cruz), and an anti-p-p53 antibody (Cell Signaling Technology). Furthermore, as a loading control, actin protein was detected using an anti-actin antibody (Sigma).

Assay [5] relates to phosphorylated p53 (p-p53) protein. Put plainly: Western blotting, phosphorylated p53, JeKo-1 cells. It counts as cell-based, human. To be noted: 0.5 μM, entire cells. As for the experimental part:
as §3, §4

The subject of another assay is ATR protein. Put plainly: Western blotting, ATR protein, BALL-1 cells. It counts as cell-based, human. To be noted: 0.5 μM. As for the experimental part:
The effects of 3EZ,20Ac-ingenol treatment on expression of ATR were examined. First, BALL-1 cells were cultured in the presence of 3EZ,20Ac-ingenol at a final concentration of 0.5 μM for 12, 24, and 48 hours, and an expression level of ATR protein was analyzed by Western blotting using an anti-ATR antibody (Santa Cruz). Cells cultured in the absence of 3EZ,20Ac-ingenol were used as controls.
Subsequently, siRNA against ATR (“ON-TARGET Plus Human ATR (545) siRNA-SMARTpool,” GE Dharmacon) was introduced into BALL-1 cells at a final concentration of 50 nM and incubated for 48 hours. Subsequently, a cell medium was replaced with a new medium containing 3EZ,20Ac-ingenol at a final concentration of 0.5 μM and culturing was performed for 12, 24, and 48 hours, and an expression level of ATR protein was analyzed by Western blotting using an anti-ATR antibody (Santa Cruz).
Cells into which control siRNA (“ON-TARGET Plus Nontargeting pool,” GE Dharmacon) was introduced and which were then cultured in the absence of 3EZ,20Ac-ingenol were used as controls.

Assay [6] relates to PTEN protein. The assay can be described thus: Western blotting, PTEN protein, JeKo-1 cells. It counts as cell-based, human. To be noted: 0.5 μM. How it is done: (§5) Specifically, first, JeKo-1 cells were cultured for 0 (control), 12, 24, and 48 hours in the presence of 0.5 μM of 3EZ,20Ac-ingenol. In addition, Panc-1 cells were cultured for 0 (control), 12, 24, and 48 hours in the presence of 3 μM of 3EZ,20Ac-ingenol.
(§6) Subsequently, abundances of PTEN protein in entire cell fractions, nuclear fractions, and cytoplasm fractions of the respective cells were analyzed by Western blotting using an anti-PTEN antibody (Santa Cruz). Furthermore, as a loading control, actin protein was detected using an anti-actin antibody (Sigma).

Assay [7] has as its system PTEN protein. Put plainly: Western blotting, PTEN protein, Panc-1 cells. It counts as cell-based, human. Conditions: 3 μM. How it is done:
as §5, §6

The next assay has as its system DT40 cells. Conditions: stop in the G2/M phase; cited from earlier work.
Where [8] appears, read: cytoplasm fraction, 12 hours to 24 hours.
[9] abbreviates: entire cell fraction, 12 hours until 48 hours.
Setting [10] is: nuclear fraction, 12 hours to 24 hours.

Broadly, the IC50 is the concentration needed to halve the response being measured. Take `CCCCC/C=C\C=C\C(=O)O[C@H]1C(C)=C[C@]23C(=O)[C@@H](C=C(COC(C)=O)[C@@H](O)[C@]12O)[C@H]1[C@@H](C[C@H]3C)C1(C)C` [3EZ,20Ac-ingenol, 3-O-(2′E,4′Z-decadienoyl)-20-O-acetylingenol]: in the assay on Panc-1 cells [1], the IC50 stood at 3000 nM. Besides, in the assay with Panc-1 cells [2], the “DNA fragmentation (apoptosis), onset” value is listed as “DNA fragmentation started 24 hours after the incubation”. Further, the “amount of fragmented DNA (apoptosis)” value in the assay on Panc-1 cells [2] (48 hours and 72 hours) was “the amount of fragmented DNA further increased”. For the same molecule, the “phosphorylation of H2AX” value was “phosphorylation of H2AX was detected” in assay [3] and “phosphorylation of H2AX was not detected” in assay [4]. Moreover, in the assay with p53 protein, the “expression level of p53 protein” value is given as “an increase in expression level of p53 protein was recognized”. For the same molecule, in assay [5], the “phosphorylation of p53” value was “phosphorylation of p53 was not confirmed”. Further, the “expression of ATR” value was “an increase in ATR expression was not recognized” in the assay with ATR protein (cells with siRNA against ATR introduced, 12, 24, 48 hours) and “the expression of ATR increased” with ATR protein (from 12 hours until 48 hours). Moreover, the “abundance of PTEN protein” value is recorded as “an increase in abundance of PTEN protein in the cytoplasm fraction was observed” in the assay on PTEN protein [6] (setting [8]); “a decrease in abundance of PTEN protein was observed” in the assay with PTEN protein [6] (cytoplasm fraction, 48 hours); “an abundance of PTEN protein increased” in the assay with PTEN protein [6] (setting [9]); “an increase in abundance of PTEN protein in the nuclear fraction was observed” in the assay with PTEN protein [6] (setting [10]); “an increase in abundance of PTEN protein in the cytoplasm fraction was observed” with PTEN protein [7] (setting [8]); “a decrease in abundance of PTEN protein was observed” with PTEN protein [7] (cytoplasm fraction, 48 hours). Besides, the “abundance of PTEN protein” value is “an abundance of PTEN protein increased” in the assay with PTEN protein [7] (setting [9]) and “an increase in abundance of PTEN protein in the nuclear fraction was observed” with PTEN protein [7] (setting [10]). In the assay on DT40 cells, the “cell proliferation of DT40 cells” value is “stops cell proliferation of DT40 cells”.

The values above are taken from patent publication US11464750B2, “Anticancer agent and use thereof” (priority 2017, dated 2022).
